The text below walks through data of patent publication US8871753B2, “Macrocyclic compounds and their use as kinase inhibitors” (Incyte Corporation, priority 2008, dated 2014).

A word on the IC50: it is the concentration that inhibits the measured activity by half.

Structures can show the parent of a compound that is named as a salt. Where two headings read alike, the source gives them in different places.

Common to all, as to assay type: biochemical
Experiment [1] concerns the target T1, human JAK1 (a.a. 837-1142) (Homo sapiens, UniProt P23458).
T1 construct: human JAK1 (a.a. 837-1142); His tag (N); made in house; host or cells: insect cells (baculovirus)
The experiment is described as follows: In vitro JAK kinase assay (HTRF, phosphorylation of a biotinylated peptide), JAK1. The settings on record: read-out: JAK1 IC50. In short, it runs like this:
(§1)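 Phosphorylation of a biotinylated peptide by the JAK kinase domain, detected by HTRF with Eu-Py20 and SA-APC. ATP was 90 μM for JAK1, 30 μM for JAK2 and 3 μM for JAK3. Reactions ran 1 h at room temperature and were stopped with EDTA, followed by 40 min antibody binding.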
On the technique in general: Time-resolved FRET reads energy transfer from a long-lived donor to a nearby acceptor.

Experiment [2] has as its target T2, human JAK2 (a.a. 828-1132) (Homo sapiens, UniProt O60674).
T2 construct: JAK2 (a.a. 828-1132); His tag (N); made in house; host or cells: insect cells (baculovirus)
Kind of experiment: In vitro JAK kinase assay (HTRF, phosphorylation of a biotinylated peptide), JAK2. The gist of the method: as §1

Experiment [3] deals with T3, human JAK3 (a.a. 781-1124) (Homo sapiens, UniProt P52333).
T3 construct: JAK3 (a.a. 781-1124); His tag (N); made in house; host or cells: insect cells (baculovirus)
Kind of experiment: In vitro JAK kinase assay (HTRF, phosphorylation of a biotinylated peptide), JAK3. In short, it runs like this: as §1

The target in the next experiment is TYK2 (Homo sapiens, UniProt P29597). Kind of experiment: TYK2 kinase inhibition (Table A1).
Experiment [4] concerns the target T4, Recombinant Human Anaplastic Lymphoma Kinase (Homo sapiens, UniProt Q9UM73).
T4 construct: purchased Invitrogen, Carlsbad, Calif
Kind of experiment: ALK HTRF kinase assay. In short, it runs like this: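 Readout was HTRF between a Eu-W1024 anti-phosphotyrosine antibody and streptavidin-APC bound to biotinylated peptide phosphorylated by recombinant human ALK. IC50 values came from a four-parameter logistic fit.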

[5] abbreviates: method AA1 (90 μM ATP) or AA2 (1000 μM ATP), not stated per value.
[6] abbreviates: method AA1 (30 μM ATP) or AA2 (1000 μM ATP), not stated per value.
Where [7] appears, read: method AA1 (3 μM ATP) or AA2 (1000 μM ATP), not stated per value.
Setting [8] is: compound at 500 nM or 1 mM, 90 μM ATP.
[9] abbreviates: compound at a concentration of 500 nM or 1 mM (not specified), cells shown as percentage.
Setting [10] is: percentage inhibition of the example compound at a concentration of 500 nM or 1 mM (not specified which).

T4 sequence (Q9UM73 19-1620): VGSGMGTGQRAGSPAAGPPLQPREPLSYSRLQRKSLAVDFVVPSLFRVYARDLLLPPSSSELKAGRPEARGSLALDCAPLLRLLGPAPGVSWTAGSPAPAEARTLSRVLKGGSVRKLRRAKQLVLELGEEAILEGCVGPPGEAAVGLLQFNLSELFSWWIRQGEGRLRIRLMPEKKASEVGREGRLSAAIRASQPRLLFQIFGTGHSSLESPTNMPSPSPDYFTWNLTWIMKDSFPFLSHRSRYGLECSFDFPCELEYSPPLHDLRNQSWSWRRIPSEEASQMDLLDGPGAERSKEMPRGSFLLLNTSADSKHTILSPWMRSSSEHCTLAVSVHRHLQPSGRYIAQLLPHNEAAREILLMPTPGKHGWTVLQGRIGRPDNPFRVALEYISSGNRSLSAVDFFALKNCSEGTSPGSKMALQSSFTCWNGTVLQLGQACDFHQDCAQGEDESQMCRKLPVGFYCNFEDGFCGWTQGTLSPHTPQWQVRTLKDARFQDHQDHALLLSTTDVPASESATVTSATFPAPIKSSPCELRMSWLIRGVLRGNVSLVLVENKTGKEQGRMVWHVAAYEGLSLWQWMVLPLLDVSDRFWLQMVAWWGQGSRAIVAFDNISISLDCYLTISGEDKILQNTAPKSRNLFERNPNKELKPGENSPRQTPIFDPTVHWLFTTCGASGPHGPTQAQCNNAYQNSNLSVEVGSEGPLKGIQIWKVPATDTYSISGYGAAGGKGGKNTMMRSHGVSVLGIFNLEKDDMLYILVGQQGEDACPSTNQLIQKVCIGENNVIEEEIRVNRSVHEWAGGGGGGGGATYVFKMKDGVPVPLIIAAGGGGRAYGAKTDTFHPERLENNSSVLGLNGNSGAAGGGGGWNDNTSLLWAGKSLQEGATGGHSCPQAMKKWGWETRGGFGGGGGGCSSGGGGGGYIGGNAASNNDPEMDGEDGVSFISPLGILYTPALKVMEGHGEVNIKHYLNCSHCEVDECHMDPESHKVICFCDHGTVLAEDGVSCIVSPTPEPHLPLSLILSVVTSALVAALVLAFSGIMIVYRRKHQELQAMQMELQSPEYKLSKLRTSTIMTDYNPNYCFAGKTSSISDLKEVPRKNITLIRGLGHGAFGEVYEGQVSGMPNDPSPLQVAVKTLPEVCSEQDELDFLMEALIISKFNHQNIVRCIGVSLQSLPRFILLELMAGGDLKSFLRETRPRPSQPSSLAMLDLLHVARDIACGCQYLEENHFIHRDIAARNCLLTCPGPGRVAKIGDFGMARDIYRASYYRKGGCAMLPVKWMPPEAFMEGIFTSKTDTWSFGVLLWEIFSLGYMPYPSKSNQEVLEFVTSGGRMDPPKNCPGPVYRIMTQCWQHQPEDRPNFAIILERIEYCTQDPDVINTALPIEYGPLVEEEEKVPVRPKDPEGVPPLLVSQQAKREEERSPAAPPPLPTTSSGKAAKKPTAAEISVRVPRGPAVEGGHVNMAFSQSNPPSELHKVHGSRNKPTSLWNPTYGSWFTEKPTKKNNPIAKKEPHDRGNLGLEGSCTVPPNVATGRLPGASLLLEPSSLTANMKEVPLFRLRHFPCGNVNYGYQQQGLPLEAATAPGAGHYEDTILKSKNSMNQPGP
T1 sequence (P23458 849-1154): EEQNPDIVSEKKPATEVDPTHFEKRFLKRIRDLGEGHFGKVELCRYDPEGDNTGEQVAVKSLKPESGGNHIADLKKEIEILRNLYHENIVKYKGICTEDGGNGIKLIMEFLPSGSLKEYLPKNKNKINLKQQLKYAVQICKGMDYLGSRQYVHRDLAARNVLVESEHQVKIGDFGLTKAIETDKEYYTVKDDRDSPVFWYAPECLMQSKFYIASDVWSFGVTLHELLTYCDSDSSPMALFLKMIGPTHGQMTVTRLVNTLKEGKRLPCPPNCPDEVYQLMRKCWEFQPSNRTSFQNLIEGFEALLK
T3 sequence (P52333 781-1124): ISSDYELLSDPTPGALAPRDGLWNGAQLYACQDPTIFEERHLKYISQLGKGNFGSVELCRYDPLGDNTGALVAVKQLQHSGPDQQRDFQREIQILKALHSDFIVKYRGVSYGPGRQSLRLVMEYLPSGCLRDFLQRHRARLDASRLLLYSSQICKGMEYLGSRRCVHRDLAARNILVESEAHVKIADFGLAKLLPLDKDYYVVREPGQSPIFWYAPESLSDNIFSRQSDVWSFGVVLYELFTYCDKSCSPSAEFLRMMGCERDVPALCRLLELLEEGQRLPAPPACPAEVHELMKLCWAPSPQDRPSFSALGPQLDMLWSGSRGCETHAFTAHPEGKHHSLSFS
T2 sequence (O60674 828-1132): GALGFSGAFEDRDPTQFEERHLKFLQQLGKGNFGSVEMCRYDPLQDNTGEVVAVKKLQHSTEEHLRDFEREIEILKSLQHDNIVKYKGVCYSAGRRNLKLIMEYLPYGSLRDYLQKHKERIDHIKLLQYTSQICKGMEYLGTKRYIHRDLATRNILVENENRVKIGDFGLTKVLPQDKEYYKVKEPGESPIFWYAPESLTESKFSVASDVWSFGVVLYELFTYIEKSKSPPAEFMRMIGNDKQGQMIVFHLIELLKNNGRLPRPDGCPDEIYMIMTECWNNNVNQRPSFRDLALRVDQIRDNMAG
TYK2, sequence (P29597 whole entry): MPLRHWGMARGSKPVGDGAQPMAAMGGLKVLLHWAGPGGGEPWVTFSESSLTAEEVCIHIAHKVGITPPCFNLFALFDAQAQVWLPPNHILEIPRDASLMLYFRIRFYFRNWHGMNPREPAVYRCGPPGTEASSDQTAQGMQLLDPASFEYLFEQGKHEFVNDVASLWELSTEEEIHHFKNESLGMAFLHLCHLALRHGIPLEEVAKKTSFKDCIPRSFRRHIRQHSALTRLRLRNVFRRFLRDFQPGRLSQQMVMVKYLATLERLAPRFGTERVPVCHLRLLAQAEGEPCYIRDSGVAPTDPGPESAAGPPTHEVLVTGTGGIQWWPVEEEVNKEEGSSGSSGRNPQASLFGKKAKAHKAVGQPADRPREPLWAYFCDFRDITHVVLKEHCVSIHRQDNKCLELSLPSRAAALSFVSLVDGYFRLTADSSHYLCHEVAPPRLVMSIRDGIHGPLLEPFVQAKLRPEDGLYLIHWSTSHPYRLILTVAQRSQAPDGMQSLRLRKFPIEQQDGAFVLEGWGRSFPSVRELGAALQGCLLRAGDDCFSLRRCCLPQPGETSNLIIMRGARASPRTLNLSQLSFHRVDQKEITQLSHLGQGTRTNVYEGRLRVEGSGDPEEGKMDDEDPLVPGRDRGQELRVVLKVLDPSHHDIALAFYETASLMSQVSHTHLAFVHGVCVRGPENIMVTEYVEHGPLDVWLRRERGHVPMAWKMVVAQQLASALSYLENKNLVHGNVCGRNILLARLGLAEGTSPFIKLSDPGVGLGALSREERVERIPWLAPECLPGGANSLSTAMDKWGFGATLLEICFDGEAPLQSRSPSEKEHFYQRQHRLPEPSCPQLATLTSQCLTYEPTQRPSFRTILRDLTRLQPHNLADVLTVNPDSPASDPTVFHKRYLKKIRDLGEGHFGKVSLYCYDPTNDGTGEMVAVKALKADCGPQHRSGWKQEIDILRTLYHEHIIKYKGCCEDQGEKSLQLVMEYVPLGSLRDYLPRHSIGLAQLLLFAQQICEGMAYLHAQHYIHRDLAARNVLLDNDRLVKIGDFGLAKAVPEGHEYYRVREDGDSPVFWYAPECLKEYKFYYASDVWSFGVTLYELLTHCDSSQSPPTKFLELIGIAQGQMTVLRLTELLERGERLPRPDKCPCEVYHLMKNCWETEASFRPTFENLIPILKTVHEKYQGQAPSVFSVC

Consider `O=C(CC1CCN(S(=O)(=O)c2ccccc2)CC1)Nc1ccc2cc1CCc1cncc(c1)Nc1ncc(Cl)c(n1)N2` [Example A195, N-[6-Chloro-2,4,8,18,22-pentaazatetracyclo[14.3.1.1(3,7).1(9,13)]docosa-1(20),3(22),4,6,9(21),10,12,16,18-nonaen-12-yl]-2-[1-(phenylsulfonyl)piperidin-4-yl]acetamide bis(trifluoroacetate)], for which the IC50 in experiment [1] (setting [5]) is 7.1 nM; in experiment [2] (setting [6]), 80 nM; in experiment [3] (setting [7]) it was > 200 nM; on TYK2, 140 nM. In addition, the “ALK % of inhibition at a concentration of 500 nM or 1 mM” value (“ALK % of inhibition” below) in experiment [4] (setting [8]) is recorded as 35%.
On to `CS(=O)(=O)N1CCC(NC(=O)Nc2ccc3cc2CCc2cccc(c2)Nc2ncc(Cl)c(n2)N3)CC1` [Example B182, N-[6-Chloro-2,4,8,22-tetraazatetracyclo[14.3.1.1(3,7).1(9,13)]docosa-1(20),3(22),4,6,9(21),10,12,16,18-nonaen-12-yl]-N′-[1-(methylsulfonyl)piperidin-4-yl]urea trifluoroacetate], for which the IC50 in experiment [1] (Table B1) was 1.2 nM; in experiment [2] (Table B1), 6.2 nM; in experiment [3] (Table B1), 44 nM; against TYK2 (Table B1) it was 17 nM. Also, the “ALK % of inhibition” value in experiment [4] (setting [9]) is listed as 29%.
For `Cc1occc1NC(=O)N1CCC(CN(C)Cc2ccc3cc2CCc2cncc(c2)Nc2ncc(Cl)c(n2)N3)CC1` [Example B349, 4-{[{[6-Chloro-2,4,8,18,22-pentaazatetracyclo[14.3.1.1(3,7).1(9,13)]docosa-1(20),3(22),4,6,9(21),10,12,16,18-nonaen-12-yl]methyl}(methyl)amino]methyl}-N-(2-methyl-3-furyl)piperidine-1-carboxamide tris(trifluoroacetate)], the IC50 in experiment [1] (Table B1) was 11 nM; in experiment [2] (Table B1), 150 nM; in experiment [3] (Table B1) it was 371 nM; against TYK2 (Table B1) it was 300 nM. Also, the “ALK % of inhibition” value in experiment [4] (setting [10]) is recorded as 61%.
In the same order, the values of `Cc1cncc(N2CCN(C(=O)Nc3ccc4cc3CCc3cncc(c3)Nc3ncc(Cl)c(n3)N4)CC2)n1` [Example B308, N-[6-Chloro-2,4,8,18,22-pentaazatetracyclo[14.3.1.1(3,7).1(9,13)]docosa-1(20),3(22),4,6,9(21),10,12,16,18-nonaen-12-yl]-4-(6-methylpyrazin-2-yl)piperazine-1-carboxamide tris(trifluoroacetate)] are 16 nM, 83 nM, > 400 nM, 34 nM and 79%.
Consider `CC(C)C(=O)N1CC[C@H](NC(=O)Nc2ccc3cc2CCc2cccc(c2)Nc2ncc(Cl)c(n2)N3)C1` [Example B229, N-[6-Chloro-2,4,8,22-tetraazatetracyclo[14.3.1.1(3,7).1(9,13)]docosa-1(20),3(22),4,6,9(21),10,12,16,18-nonaen-12-yl]-N′-[(3S)-1-isobutyrylpyrrolidin-3-yl]urea trifluoroacetate], for which the IC50 is 9 nM in experiment [1] (Table B1), 17 nM in experiment [2] (Table B1), 76 nM in experiment [3] (Table B1) and 19 nM on TYK2 (Table B1). The “ALK % of inhibition” value in experiment [4] (setting [9]) stood at 6.5%.
In the case of `O=C(Nc1ccc2cc1CCc1cncc(c1)Nc1ncc(Cl)c(n1)N2)N1CCN(c2ccc(Cl)cc2)CC1` [Example B307, N-[6-Chloro-2,4,8,18,22-pentaazatetracyclo[14.3.1.1(3,7).1(9,13)]docosa-1(20),3(22),4,6,9(21),10,12,16,18-nonaen-12-yl]-4-(4-chlorophenyl)piperazine-1-carboxamide tris(trifluoroacetate)], the IC50 in experiment [1] (Table B1) was 36 nM; in experiment [2] (Table B1), 217 nM; in experiment [3] (Table B1), > 400 nM; on TYK2 (Table B1) it was 66 nM. For the same compound, in experiment [4] (setting [10]), the “ALK % of inhibition” value worked out at 74%.
As for `O=C(CC1CCN(C(=O)c2cnccn2)CC1)Nc1ccc2cc1CCc1cccc(c1)Nc1ncc(Cl)c(n1)N2` [Example A87, N-[6-Chloro-2,4,8,22-tetraazatetracyclo[14.3.1.1(3,7).1(9,13)]docosa-1(20),3(22),4,6,9(21),10,12,16,18-nonaen-12-yl]-2-[1-(pyrazin-2-ylcarbonyl)piperidin-4-yl]acetamide bis(trifluoroacetate)], the IC50 in experiment [1] (setting [5]) was determined as 14 nM; in experiment [2] (setting [6]), 9.8 nM; in experiment [3] (setting [7]), 56 nM; on TYK2 it was 12 nM. The “ALK % of inhibition” value in experiment [4] (setting [8]) is given as 31%.
Consider `CN1CCCC1CCNC(=O)Nc1ccc2cc1CCc1cccc(c1)Nc1ncc(Cl)c(n1)N2` (stereo not drawn) [Example B256, N-[6-Chloro-2,4,8,22-tetraazatetracyclo[14.3.1.1(3,7).1(9,13)]docosa-1(20),3(22),4,6,9(21),10,12,16,18-nonaen-12-yl]-N′-[2-(1-methylpyrrolidin-2-yl)ethyl]urea bis(trifluoroacetate)], for which the 50% inhibitory concentration (IC50) in experiment [1] (Table B1) turned out to be 4.2 nM; in experiment [2] (Table B1), 13 nM; in experiment [3] (Table B1) it was 77 nM; at TYK2 (Table B1) it was 21 nM. Further, the “ALK % of inhibition” value in experiment [4] (setting [9]) turned out to be 23%.
Regarding `Clc1cnc2nc1Nc1cccc(c1)OCCc1cc(cc(-c3cnc(N4CCNCC4)nc3)c1)N2` [Example D31, 6-Chloro-19-(2-piperazin-1-ylpyrimidin-5-yl)-14-oxa-2,4,8,23-tetraazatetracyclo[15.3.1.1(3,7).1(9,13)]tricosa-1(21),3(23),4,6,9(22),10,12,17,19-nonaene tris(trifluoroacetate)], the IC50 in experiment [1] (Table D1) stood at 0.9 nM; in experiment [2] (Table D1), 0.2 nM; in experiment [3] (Table D1) it was 6.7 nM; at TYK2 (Table D1), 2 nM; in experiment [4] (Table D1, 90 μM ATP), 104 nM.
For the compound `NC(=O)N1CCN(c2ccc(-c3cc4cc(c3)Nc3ncc(Cl)c(n3)Nc3cccc(c3)OCC4)cn2)CC1` [Example D40, 4-{5-[6-Chloro-14-oxa-2,4,8,23-tetraazatetracyclo[15.3.1.1(3,7).1(9,13)]tricosa-1(21),3(23),4,6,9(22),10,12,17,19-nonaen-19-yl]pyridin-2-yl}piperazine-1-carboxamide bis(trifluoroacetate)], the IC50 in experiment [1] (Table D1) was 0.9 nM; in experiment [2] (Table D1) it was 0.7 nM; in experiment [3] (Table D1) it was 7.2 nM; against TYK2 (Table D1) it was 2.1 nM; in experiment [4] (Table D1, 90 μM ATP) it was 182 nM.
Turning to `COC(=O)c1cc2cc(c1)Nc1nc(ncc1Cl)Nc1cccc(c1)CC2` [Example B5, Methyl 6-chloro-2,4,8,22-tetraazatetracyclo[14.3.1.1(3,7).1(9,13)]docosa-1(20),3(22),4,6,9(21),10,12,16,18-nonaene-11-carboxylate trifluoroacetate], the IC50 in experiment [1] (Table B1) was 107 nM; in experiment [2] (Table B1), 44 nM; in experiment [3] (Table B1), 83 nM; against TYK2 (Table B1), 165 nM; in experiment [4] (Table B1, cells without percent sign), > 1000 nM.
In the case of `O=C(CC1CCN(C(=O)c2ccon2)CC1)Nc1ccc2cc1CCc1cncc(c1)Nc1ncc(Cl)c(n1)N2` [Example A135, N-[6-Chloro-2,4,8,18,22-pentaazatetracyclo[14.3.1.1(3,7).1(9,13)]docosa-1(20),3(22),4,6,9(21),10,12,16,18-nonaen-12-yl]-2-[1-(isoxazol-3-ylcarbonyl)piperidin-4-yl]acetamide bis(trifluoroacetate)], the IC50 is 0.4 nM in experiment [1] (setting [5]), 2.3 nM in experiment [2] (setting [6]), 79 nM in experiment [3] (setting [7]) and 0.9 nM against TYK2. Also, the “ALK % of inhibition” value in experiment [4] (setting [8]) was determined as 30%.
